Measured values reported in a melting point compilation (Tetko et al.; mined from patent text by program, amines drawn as free bases though some values may be those of a salt).

Row | SMILES | melting point [°C]
1 | CN1CSC(Cc2cc(C(C)(C)C)c(O)c(C(C)(C)C)c2)C1=O (centres undefined) | 102 to 105
2 | CCOC(=O)c1sc(SC)c(C(=O)CC)c1C | 114 to 115
3 | CN1CCN(c2cccc3c2C[C@H](NS(C)(=O)=O)CC3)CC1 | 135 to 137
4 | CCCCc1nc2c(N)nc3cccnc3c2n1CCCCN1CC(C(N)=O)=CC=C1N1CCOCC1 | 95 to 100
5 | CSc1ccc(NC(=N)c2ccc(Cl)cc2)cc1 | 148 to 150
6 | Nc1ccc(-c2nc3ccc(F)cc3s2)cc1 | 152 to 155
7 | CC(C)Sc1c(C(N)=O)sc2ccccc12 | 183 to 185
8 | CC(=O)C1(O)CCC2C3C=C(C)C4=CC(=O)CCC4(CO)C3CCC21C (centres undefined) | 184 to 186
9 | COC(=O)c1ccc(CO)nc1C1=NC(C)(C(C)C)C(=O)N1 (centres undefined) | 115 to 118
10 | COC(=O)c1cc([N+](=O)[O-])nn1C | 65 to 66
11 | CC(C)c1cc(C(C)C)c(OCC(=O)O)c(C(C)C)c1 | 105 to 108
12 | CC(O)C(=O)Nc1ccc(C2=NNC(=O)NC2C)cc1 (centres undefined) | 217 to 225
13 | CSc1coc2ccccc2c1=O | 103 to 105
14 | O=C(O)c1ccc2cc(O)c(O)cc2c1 | 241 to 250
15 | CCc1cccc(N2C(=S)SCC2(O)CC)n1 (centres undefined) | 84
16 | CCOC(=O)C(NC(=O)CCl)c1cscn1 (centres undefined) | 145 to 146
17 | C(=C\c1ncc(-c2cnc(-c3ccccc3)nc2)[nH]1)/c1cccnc1 | 258
18 | O=C1C=CC(O)(c2nc3ccccc3o2)C=C1 | 116 to 117
19 | O=C(CCl)NC(c1ccccc1)C(O)c1ccccc1 (centres undefined) | 166 to 169
20 | O=C(NCCCCCCCNC(=O)c1ccc(OC(F)F)cc1)c1ccc(OC(F)F)cc1 | 138 to 139
21 | NC(=O)COc1ccc(CCNS(=O)(=O)c2ccc(Cl)cc2)cc1 | 158 to 159
22 | C[C@]12CC(=C(F)F)[C@H]3[C@@H](CCC4=CC(=O)CC[C@@H]43)[C@@H]1CCC2=O | 158 to 164
23 | CCOC(=O)C1C=NC(C)=C(c2ccccc2)C1=O (centres undefined) | 178 to 180

Row | SMILES | melting point [°C]
24 | CS(=O)(=O)C1Cc2cc(Cl)ccc2C1O (centres undefined) | 163
25 | OC(CCl)CSc1ncc(Cl)cn1 (centres undefined) | 99
26 | O=C1c2cccc(O)c2C(=O)c2ccsc21 | 199 to 200
27 | Cc1c(F)c(F)c(CNc2ccc(Cl)c(O)c2)c(F)c1F | 52
28 | CCC(C)c1cc(Cl)cc(Cl)c1OCC(=O)NCCCCNC(=O)OC(C)(C)C (centres undefined) | 50
29 | CSc1ncc(Cc2ccc(C)nc2)c(=O)[nH]1 | 197 to 198
30 | O=[N+]([O-])c1ccc(-c2ccc(OCCCCCCO)cc2)cc1 | 117 to 119
31 | CC(C)(C)OC(=O)NC1CCN(c2c(F)cc3c(=O)c(C(=O)O)cn(C4CC4)c3c2F)C1 (centres undefined) | 239 to 240
32 | O=C1CN(N=Cc2ncc(-c3ccc(Cl)cc3)o2)C(=O)N1 | 290 to 294
33 | O=C1SC(=O)C(F)=C1F | 52 to 56
34 | CC(C)Nc1nc2c(Cl)cccc2n1[C@H]1O[C@@H](CO)[C@H](O)[C@@H]1O | 225 to 227
35 | CCCn1c(=S)nc(NCc2ccncc2)c2[nH]c(C3CC3)nc21 | 204 to 210
36 | CC(=O)OC1CSC(Oc2cccnc2-c2ccc(C)o2)C(OC(C)=O)C1OC(C)=O (centres undefined) | 128
37 | CC(NC(=O)CCBr)c1ccccc1 (centres undefined) | 69 to 70
38 | Clc1cccc(CN(c2ncnc3[nH]ncc23)C2CCCC2)c1 | 186 to 187
39 | CC(C)(O)C(=O)N[C@H]1CC[C@H](CCN2CCC(c3cccc4c3CCO4)CC2)CC1 | 163
40 | O=C1NCCN1c1ccc(C2CCN(C(=O)C(F)(F)F)CC2)cc1 | 198 to 201
41 | COC(=O)c1ccccc1CS(N)(=O)=O | 79 to 81
42 | Cc1cc(C(F)(F)F)nn1CC(=O)N1CCC(C(N)=S)CC1 | 185 to 186
43 | CCCC(C)(C)C(=O)Oc1ccc(C(=O)CNC(C)(C)C)cc1O | 128 to 130
44 | OCc1cnc2cc(Br)ccc2c1O | > 300
45 | C#Cc1ccc2c(c1)C=C(C(=O)O)C(C(F)(F)F)O2 (centres undefined) | 198 to 200
46 | COc1ccc(CCNC(C)(C)CO)cc1 | 114 to 115

Next, values leading:

Row | melting point [°C] | SMILES
47 | 297 to 299 | COc1ccc(CSc2cccc3c2C(=O)c2cccc(SCc4ccc(OC)cc4)c2C3=O)cc1
48 | 168 to 171 | CC(C)c1cccc(C(C)C)c1NC(=O)[C@H](Cc1ccc(OCc2ccccc2)cc1)NC(=O)OCC1c2ccccc2-c2ccccc21
49 | 129 to 131 | COC(=O)c1ccc(OCCCCCCc2ccc3cc(OCc4ccccc4)c(OCc4ccccc4)cc3c2)cc1O
50 | 164 to 166 | COc1ccc(-c2c3c(c(O)c4cc(OC)c(OC)c(OC)c24)C(=O)CCC3)cc1OC
51 | 233 to 234 | COCCc1nc2c(N)nc3cc(-c4ccsc4)ccc3c2n1CC(C)(C)O
52 | 119 to 120 | N[C@@H](Cc1cccc(OC(F)(F)C(F)F)c1)[C@H](O)c1ccnc(F)c1 (racemic)
53 | 214 to 215 | CCc1[nH]c2ccc(OC)cc2c1/C=C/C(=O)c1ccncc1
54 | 80 to 84 | CS(=O)(=O)N(Cc1cccnc1)c1ccccc1OCC(F)(F)F
55 | 117 to 119 | Fc1cc(CC2(Cc3ccncc3)c3ccccc3-c3sccc32)ccn1 (centres undefined)
56 | 140 to 142 | O=C1CCC(N2C(=O)c3ccccc3C2=O)CC1
57 | 354 to 364 | O=c1[nH]c2cc(Cl)cc(Cl)c2c(=O)n1Cc1ccncc1
58 | 107 to 108 | CCOC(=O)C1=C(C)NC(C(OCC)OCC)=C(C(=O)OCC)C1c1cccc(O)c1 (centres undefined)
59 | 221 to 222 | COc1cc(N)cc(OC)c1-c1ccc(C[C@H](NC(=O)c2c(Cl)cccc2Cl)C(=O)O)cc1
60 | 232 to 235 | CS(=O)(=O)c1ccc(-c2cnn(-c3cccc(Cl)c3)c(=O)c2-c2ccc(F)cc2)cc1
61 | 122 to 124 | CN(C)CCCC1(O)c2ccccc2CCc2c(C3(C)OCCO3)cccc21 (centres undefined)
62 | 200 to 202 | COC(=O)c1ccc(-c2nc(-c3ccc(OC)cc3)co2)cc1
63 | 122 to 124 | CCN1CCN2C(=O)c3ccccc3C12c1ccccc1 (centres undefined)
64 | 153 | CC(C)(C)NCC(O)COc1ccc2c(=O)cc(-c3cc(O)cc(O)c3)oc2c1 (centres undefined)
65 | 157 to 158 | O=C(O)/C=C/c1ccc(OCCC2OCCO2)cc1Oc1ncc(C(F)(F)F)cc1Cl
66 | 265 to 267 | NC(=O)c1ccnc(NC(=O)N2CCC3(CCc4cc(F)ccc4O3)CC2)c1
67 | 151 to 153 | Cc1cccc(C(=NO)c2ccc(OCCOc3ccc(C(=NO)c4cccc(C)c4)cc3)cc2)c1
68 | 243 to 245 | O=Cc1cc2ccccc2c(-c2ccc(I)cc2)n1
69 | 84 to 85 | CCOC1CN(Cc2ccc(OC)cc2)Cc2cc(OC)c(OCc3ccccc3)cc21 (centres undefined)
70 | 267 to 268 | Cc1cc(-c2nc3ccc(CN4CCOCC4)cc3c(=O)[nH]2)ccn1
71 | 95 | CCCN(C1=C(O)CC(CCc2ccc(O)cc2)(C2CCCC2)OC1=O)c1ccccc1 (centres undefined)
72 | 258 to 259 | CC(C)(C)c1ccc(C(=O)Nc2cn3cc(-c4ccoc4)ccc3n2)cc1
73 | 152 to 156 | CC(=O)Oc1ccc(CC2SC(=O)N(C(c3ccccc3)(c3ccccc3)c3ccccc3)C2=O)cc1 (centres undefined)

Row | melting point [°C] | SMILES
74 | 92 to 93 | COCCNC(=O)c1cccc(-c2cccc3cc(Cc4cccc(N(C)C)c4)sc23)c1
75 | 70 to 72 | Cc1cccc(-c2[nH]c(C(C)C)nc2-c2cccc(-c3ccc(F)cc3F)c2)n1
76 | 200 to 210 | O=C(O)c1cc(-c2ccc3c(c2)CCO3)nn(Cc2ccc(Cl)cc2)c1=O
77 | 173 to 174 | Cc1ccccc1N1CCc2c(N)nc3c(C)cccc3c21
78 | 96 to 102 | C[C@@H](n1cnc2cc(OCC(F)F)ccc2c1=O)[C@](O)(Cn1cncn1)c1ccc(F)cc1F
79 | 74 to 77 | O=[N+]([O-])c1ccc2c(c1)CC(Cl)c1ccccc1S2 (centres undefined)
80 | 168 to 170 | O=C1CCC(N2Cc3c(OCc4ccc5occc5c4)cccc3C2=O)C(=O)N1 (centres undefined)
81 | 199 to 200 | CC(C)c1ccc(OC(Cc2ccc(OCCNC(=O)c3ccc(-c4ccc(F)cc4)nc3)cc2)C(=O)O)cc1 (centres undefined)
82 | 85 to 86 | COc1cccc(COc2cc3c(cc2OC)C(=O)N(Cc2cccc(OC)c2)CC3)c1
83 | 61 | CCn1ccc(-c2cccc(-c3ccnc4c(C(=O)c5cccs5)cnn34)c2)n1
84 | 217 to 219 | CONC(=O)Nc1ccc(-c2sc3c(c2CCl)c(=O)n(-c2ccccc2)c(=O)n3Cc2c(F)cccc2F)cc1
85 | 73 to 76 | COC(=O)c1cccc(Oc2cccc(-c3nnc(N(Cc4ccc(C(F)(F)P(=O)(O)O)c(Cl)c4)c4ccc(Cl)c(Cl)c4)s3)c2)c1
86 | 194 to 196 | Cc1c(Cl)c(OCC(=O)O)c(Cc2ccc3c(Cl)cccc3c2)c(O)c1C=O
87 | 105 to 106 | COC(=O)C1Cc2c([nH]c3ccccc23)C(c2ccccc2Br)N1 (centres undefined)
88 | 189 to 191 | N#Cc1c(Cc2ccccc2)nn(C2CCCC2)c1NC(=O)c1ccncc1
89 | 144 to 145 | COc1ccc(C(=O)OCc2ccccc2)cc1NC(=S)Nc1cc(Cl)cc(Cl)c1
90 | 158 to 159 | CSc1nnc(-c2ccc3occ(-c4cc(F)ccc4F)c3c2)o1
91 | > 250 | N#Cc1cc(-c2nc3cncnc3s2)ccc1Oc1ccc(O)cc1
92 | 125 | COc1ccccc1CNc1ccc2cc(Nc3nccc(C)n3)ccc2n1
93 | 62 to 67 | CC(=O)SCC(Cc1ccccc1)C(=O)Nc1cc(C(=O)O)cc(C(F)(F)F)c1 (centres undefined)
94 | 273 to 277 | CCOC(=O)C(=O)Nc1ccc2c(c1)-c1c(c(C(=O)C(C#N)C(=O)Nc3ccccc3)nn1-c1ccccc1)CS2 (centres undefined)
95 | 94 to 96 | CCCc1c(OCCCc2ccc3cc(OC)c(OC)cc3c2)ccc(C(=O)OCc2ccccc2)c1O
96 | 266 to 268 | CCc1cc(OCc2ccc(C(=O)NS(=O)(=O)c3ccccc3C)cc2)c2c(n1)CCCC2
97 | 105 | N#CNc1ccc(OCc2ccccc2)cc1
98 | 107 to 109 | CC(C)N1CCOC(COc2cccc3c2CC=C3)C1 (centres undefined)
99 | 229 | CS(=O)(=O)N1CCN2C(=O)N(c3cc(Cl)cc(Cl)c3)C(=O)C2(Cc2ccc(Br)cc2)C1 (centres undefined)
